Test results taken from patent publication EP0297815B1, “Fluorine containing renin inhibitors” (PFIZER INC., priority 1987, dated 1989).

Biological target: T1, renin (Homo sapiens, UniProt P00797)
T1 sequence (P00797 67-406): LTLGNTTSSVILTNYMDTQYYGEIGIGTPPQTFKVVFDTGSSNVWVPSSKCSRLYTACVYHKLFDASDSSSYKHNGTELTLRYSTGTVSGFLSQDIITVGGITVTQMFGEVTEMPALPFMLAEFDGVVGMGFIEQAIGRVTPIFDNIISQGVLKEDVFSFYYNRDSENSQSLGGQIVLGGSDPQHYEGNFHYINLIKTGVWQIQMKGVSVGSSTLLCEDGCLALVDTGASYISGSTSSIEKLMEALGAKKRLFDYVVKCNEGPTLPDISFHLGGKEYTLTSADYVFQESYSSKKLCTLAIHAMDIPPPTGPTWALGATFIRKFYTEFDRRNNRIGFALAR
Assay: renin inhibitory potency
Format: biochemical
Conditions: compared with the more retained 2R,5R isomer separated by HPLC
From the text: The activity of the compounds of the present invention as inhibitors of the angiotensinogen-cleaving activity of renin may be determined by studying (1) their ability to inhibit the angiotensinogen-cleaving activity of renin in vitro and (2) their ability to antagonize the exogenous renin-induced pressor response in vivo.

CCCC[C@H](NC(=O)[C@H](Cc1ccccc1)NC(=O)N1CCOCC1)C(=O)N[C@@H](CC1CCCCC1)C(=O)C(F)(F)[C@@H](CC(C)C)C(=O)OCC [2S,5S product, ethyl (2S,5S)-2-isobutyl-3,3-difluoro-4-keto-5-N-(N-[morpholinocarbonyl-L-phenylalanyl]-L-norleucyl)-amino-6-cyclohexylhexanoate]
renin inhibitory potency: more active
